Test results taken from patent US7314866B2, “Ku-70-derived Bax-suppressing peptides and use thereof for the protection of damaged cells” (Bloodcenter of Wisconsin, Inc., priority 2002, dated 2008).
Where a SMILES comes first, the peptide text is derived from it.

Assays:
HEK293T cells = assay: Bax-induced apoptosis in HEK293T cells (pcDNA3-Bax transfection, Hoechst staining); format: cell-based, human; conditions: peptide delivered into the cells by liposome (BioPorter)
Description: FIG. 1 illustrates that new peptides designed from Ku70 show anti-Bax activity. FIG. 1A: scheme of Ku70 full-length (Ku70 wt), Ku701-577 (Ku70Δ578–609), or Ku70578-609 (Ku70Δ1–577). FIG. 1C: HEK293T cells were transfected with 1.0 ug of pCMV-2B-control vector (Control) or pcDNA3-Bax (Bax) together with 2.0 ug of pCMV-2B-Ku70 wt (Ku70 wt), pCMV-2B-Ku701-577 (Ku701-577), or pCMV-2B-Ku70578-609 (Ku70578-609). All the cells were also co-transfected with 0.5 ug pEGFP for the marking of transfected cells. Apoptosis in the transfected cells was analyzed 24 hours following transfection with Hoechst dye staining of the nucleus as described in Methods. FIG. 1D: HEK293T cells were incubated with 200 uM peptide composed of Ku70578-587 or Ku70596-600 for 4 hours using BioPorter reagent, and then transfected with 1.0 ug of pCDNA3-control vector (Control) or pcDNA3-Bax (Bax). The number of apoptotic cells was determined as described in FIG. 1C. FIG. 1E: HEK293T cells (10^6 cells) were incubated with 200 uM IPMIK (negative control peptide) or VPMLK (V5) and PMLKE (P5) peptides at the indicated concentrations for 1 hour and then incubated cells were transfected with 1.0 ug of pcDNA3-Bax. Also, unincubated cells were transfected with 1.0 ug of pcDNA3-Bax in the presence or absence of 200 uM z-VAD-fmk. The number of apoptotic cells was determined as described in FIG. 1C. FIG. 1F: Summary of the anti-Bax activity and sequence of all peptides used.
HEK293T and HeLa cells were cultured in MEM supplemented with 10% fetal bovine serum (FBS) and Du145 cells and mouse embryonic fibroblasts (MEFs) were in DMEM with 10% FBS. Transfection of the plasmids was performed by SuperFect (Qiagen) according to the manufacturer's manual. Apoptosis was induced by pcDNA3-human Bax (Bax-encoding plasmid)-transfection, Staurosporin (STS)-treatment and UVC-irradiation. The amount of the plasmids, the concentration of STS, and the energy of UVC-irradiation are described in the figure legends. Apoptosis in the transfected cells was analyzed as follows: A plasmid encoding enhanced green fluorescent protein (EGFP) (0.5 ug to 10^6 cells) was transfected to all the groups to mark the transfected cells. After the treatment, cells were stained with Hoechst dye and cells with apoptotic nuclei were counted in GFP-expressing cells under the fluorescent microscope as described by Matsuyama, et al., J. Biol. Chem. 273:30995–31001, 1998. Each point in the figures showing percentages of apoptosis represents the mean +/−SE of three experiments. Caspase activities of cells were measured by detecting the cleavage of fluorogenic substrate of Caspase (DEVD-afc) as previously described.
BioPorter-based peptide delivery was performed 4 hours before apoptosis induction.

[1] = Membrane permeability and cellular retention of peptides; format: in vitro ADME

Molecule	Membrane permeability [1]	Retention of the peptide in the cell [1]	Suppression of Bax-induced apoptosis (HEK293T cells)
578–587: synthetic peptide of Ku70 amino acids 578–587, 2nd α-helix from the C-terminus (VPMLKEACRA; UniProt P12956 578-587, looked up, fragment)			inhibited Bax-induced apoptosis
596–600: synthetic peptide of Ku70 amino acids 596–600 (KQELL; UniProt P12956 596-600, looked up, fragment)			not
CSCC[C@H](NC(=O)[C@@H]1CCCN1)C(=O)N[C@@H](CC(C)C)C(=O)N[C@@H](CCCCN)C(=O)N[C@@H](CCC(=O)O)C(=O)O [PMLKE] (H-PMLKE-OH; N-terminus and C-terminus assumed)	membrane permeable	effectively retained inside the cells	
CSCC[C@H](NC(=O)[C@@H]1CCCN1)C(=O)N[C@@H](CC(C)C)C(=O)N[C@@H](CCCCN)C(=O)O [PMLK] (H-PMLK-OH; N-terminus and C-terminus assumed)		not retained in the cell	

Continued, in another order:

Membrane permeability [1]	Retention of the peptide in the cell [1]	Molecule	Suppression of Bax-induced apoptosis (HEK293T cells)
not membrane permeable		CSCC[C@H](NC(=O)[C@@H]1CCCN1C(=O)[C@@H](N)C(C)C)C(=O)N[C@@H](CC(C)C)C(=O)N[C@@H](CCCCN)C(=O)N[C@@H](CCC(=O)O)C(=O)O [VPMLKE] (H-VPMLKE-OH; N-terminus and C-terminus assumed)	
membrane permeable	effectively retained inside the cells	CSCC[C@H](NC(=O)[C@@H]1CCCN1C(=O)[C@@H](N)C(C)C)C(=O)N[C@@H](CC(C)C)C(=O)N[C@@H](CCCCN)C(=O)O [VPMLK] (H-VPMLK-OH; N-terminus and C-terminus assumed)	
